Experimental data as given in patent publication US10501518B2 (priority 2013, dated 2019).

What was measured:
[1] = biological target: T1, PTHR (Homo sapiens, UniProt Q03431); experiment: cAMP induction potency, N-terminal modifications and cyclic constraints (Tables 9, 10, 13); format: cell-based; settings: Table 9
T1 construct: expressed in transfected cells
T1 sequence (Q03431 27-593): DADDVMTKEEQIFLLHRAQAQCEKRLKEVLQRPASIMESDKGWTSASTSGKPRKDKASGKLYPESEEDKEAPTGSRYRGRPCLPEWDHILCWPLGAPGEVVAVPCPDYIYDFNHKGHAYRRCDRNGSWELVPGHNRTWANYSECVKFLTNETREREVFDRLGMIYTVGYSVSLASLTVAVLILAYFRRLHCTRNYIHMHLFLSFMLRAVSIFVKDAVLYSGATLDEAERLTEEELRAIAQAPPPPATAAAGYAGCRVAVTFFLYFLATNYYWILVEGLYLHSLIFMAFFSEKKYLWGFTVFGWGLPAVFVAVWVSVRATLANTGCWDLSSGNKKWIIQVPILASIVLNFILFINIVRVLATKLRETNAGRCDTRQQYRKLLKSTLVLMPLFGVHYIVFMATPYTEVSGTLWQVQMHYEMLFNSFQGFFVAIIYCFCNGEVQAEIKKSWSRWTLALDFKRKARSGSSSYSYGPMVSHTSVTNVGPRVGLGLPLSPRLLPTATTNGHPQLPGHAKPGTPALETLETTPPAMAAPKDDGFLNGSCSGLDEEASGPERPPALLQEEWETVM
Description: For cAMP dose-response assays, monolayers of confluent HEK 293 cells were pre-incubated with buffer containing d-luciferin (0.5 mM) in 96 well plates at room temperature until a stable baseline level of luminescence was established (30 min). Varying concentrations of agonist were then added, and the time course of luminescence response was recorded using a Perkin Elmer plate reader following α/β-peptide addition.

[2] = biological target: T2, trypsin (Bos taurus, UniProt P00760); experiment: Protease stability (trypsin, HPLC assay); format: in vitro ADME, bovine; settings: 40 μM peptide, 5 μg/mL trypsin, TBS, room temperature
T2 construct: purchased Sigma Aldrich (St. Louis, Mo.); host or cells: bovine pancreas
T2 sequence (P00760 24-246): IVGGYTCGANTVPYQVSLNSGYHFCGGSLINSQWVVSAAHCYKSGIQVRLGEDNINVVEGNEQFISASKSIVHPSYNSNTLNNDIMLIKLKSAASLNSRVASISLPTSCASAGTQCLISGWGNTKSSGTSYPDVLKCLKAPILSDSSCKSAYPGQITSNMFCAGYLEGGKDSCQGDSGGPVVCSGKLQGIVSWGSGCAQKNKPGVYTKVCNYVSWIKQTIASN
Description: Locations of β^3 residues in B5 and D6 are indicated by highlighted residues. Solutions of 40 μM peptide in TBS were incubated at room temperature with 5 μg/mL trypsin. Vertical lines indicate observation by MALDI-MS of one or both products consistent with hydrolysis of the backbone amide bond between the noted residues. […] Each data point represents the average of measurements from duplicate experiments, with error bars corresponding to the standard deviation.
An HPLC assay was used to assess proteolytic stability.^30, 32 Peptide concentration was determined by UV-Vis spectroscopy (calculated from the UV-vis absorption at 280 nm, ε280 nm=5,690 M^−1 cm^−1 for all peptides except D6 and D7, ε280 nm=11,380 M^−1 cm^−1 based on an extinction coefficient for the tryptophan sidechain chromophore of 5,690 M^−1 cm^−1).^33 Peptide stock solutions were prepared in degassed water to a concentration of 200 μM. […] A portion (75 μL) of the quenched reaction mixture was injected onto an analytical RP-HPLC (see peptide synthesis and purification section above), and peaks were analyzed. The time course of peptide degradation was experimentally determined by integrating the area of the peak corresponding to the non-hydrolyzed peptide in a series of HPLC traces, with duplicate proteolysis reactions being used to generate error bars corresponding to the standard deviation. […]

Structure (SMILES) | Fold PTH [1] | EC50 ([1]; read-out: EC50, nM (cAMP induction potency)) | proteolysis by trypsin [2]
CC[C@H](C)[C@H](NC(=O)[C@H](CCC(=O)O)NC(=O)[C@H](CO)NC(=O)[C@@H](NC(=O)[C@@H](N)CO)C(C)C)C(=O)N[C@@H](CCC(N)=O)C(=O)N[C@@H](CC(C)C)C(=O)N[C@@H](CCSC)C(=O)N[C@@H](Cc1cnc[nH]1)C(=O)N[C@@H](CC(N)=O)C(=O)N[C@@H](CC(C)C)C(=O)NCC(=O)N[C@@H](CCCCN)C(=O)N[C@H](CC(=O)N[C@@H](CC(C)C)C(=O)N[C@@H](CC(N)=O)C(=O)N[C@@H](CO)C(=O)N[C@@H](CCSC)CC(=O)N[C@@H](CCC(=O)O)C(=O)N[C@@H](CCCNC(=N)N)C(=O)N[C@H](C(=O)N[C@@H](CCC(=O)O)CC(=O)N[C@@H](Cc1c[nH]c2ccccc12)C(=O)N[C@@H](CC(C)C)C(=O)N[C@@H](CCCNC(=N)N)C(=O)N[C@@H](CCCCN)CC(=O)N[C@@H](CCCCN)C(=O)N[C@@H](CC(C)C)C(=O)N[C@@H](CCC(N)=O)C(=O)N[C@@H](CC(=O)O)CC(=O)N[C@H](C(=O)N[C@@H](Cc1cnc[nH]1)C(=O)N[C@@H](CC(N)=O)C(=O)N[C@H](CC(N)=O)Cc1ccccc1)C(C)C)C(C)C)Cc1c[nH]c2ccccc12 [D6] | 2.1 | 0.17 ± 0.05 nM | poorer substrate than is the α-peptide
CC[C@H](C)[C@H](NC(=O)[C@H](CCC(=O)O)NC(=O)[C@H](CO)NC(=O)[C@@H](NC(=O)[C@@H](N)CO)C(C)C)C(=O)N[C@@H](CCC(N)=O)C(=O)N[C@@H](CC(C)C)C(=O)N[C@@H](CCSC)C(=O)N[C@@H](Cc1cnc[nH]1)C(=O)N[C@@H](CC(N)=O)C(=O)N[C@@H](CC(C)C)C(=O)NCC(=O)N[C@@H](CCCCN)C(=O)N[C@@H](Cc1cnc[nH]1)C(=O)N[C@@H](CC(C)C)C(=O)N[C@@H](CC(N)=O)C(=O)N[C@@H](CO)C(=O)N[C@@H](CCSC)C(=O)N[C@@H](CCC(=O)O)C(=O)N[C@@H](CCCN=C(N)N)C(=O)N[C@H](C(=O)N[C@@H](CCC(=O)O)C(=O)N[C@@H](Cc1c[nH]c2ccccc12)C(=O)N[C@@H](CC(C)C)C(=O)N[C@@H](CCCN=C(N)N)C(=O)N[C@@H](CCCCN)C(=O)N[C@@H](CCCCN)C(=O)N[C@@H](CC(C)C)C(=O)N[C@@H](CCC(N)=O)C(=O)N[C@@H](CC(=O)O)C(=O)N[C@H](C(=O)N[C@@H](Cc1cnc[nH]1)C(=O)N[C@@H](CC(N)=O)C(=O)N[C@@H](Cc1ccccc1)C(=O)O)C(C)C)C(C)C [PTH(1-34), reference compound] | – | – | Proteolysis was observed at all predicted trypsin cut sites
